Experimental data published in patent US7737123B2, “Multidrug resistant anticancer anthracyclines” (The Ohio State University Research Foundation, priority 2005, dated 2010).
Where two headings read alike, the source gives them in different places.

Tests used:
leukemia cells K562 = assay: Cytotoxicity in drug-sensitive leukemia K562 cells by MTS assay; format: cell-based; settings: Homo sapiens
Experimental: The drug resistance index (DRI, ratio of IC50 in drug-resistant cells over IC50 in drug-sensitive cells) is a good indicator of drug's ability to overcome resistance.
The anticancer activities of Compounds 1-6 were examined in leukemia cells K562 and doxorubicin-resistant K562/Dox cells by MTS assay. The drug-resistant K562/Dox cell line was induced by doxorubicin treatment. The cell line was cultured in 0.1 μM doxorubicin one week/per month, followed by 10 days culture without doxrubicin before experiment. This is to maintain similar high levels of P-gp expression in each experiment. In drug-resistant K562 cells, MDR1 mRNA was induced by 600-fold higher than drug-sensitive K562 cells as measured by real-time PCR (data not shown). […] Then 20 μL MTS/PMS assay solution was added to each well and the absorbance was recorded. The cell survival was calculated as percentage of cell control group without treatment. The anticancer activities are summarized in Table 2 and graphically illustrated in FIG. 5. The IC50 values were calculated by WinNonlin 4.1 (Pharsight) from the dose-response curves of percentage of cell growth with the model: E=Emax−(Emax−E0)×[C/(C+EC50)]

[1] = system: doxorubicin-resistant K562/Dox cells; assay: Cytotoxicity in doxorubicin-resistant K562/Dox cells by MTS assay; format: cell-based; settings: for IC50: Homo sapiens, drug-resistant K562/Dox, MTS assay, 72 hours; for DRI (drug resistance index): ratio of IC50 in drug-resistant cells over IC50 in drug-sensitive cells
Experimental: The drug-resistant K562/Dox cell line was induced by doxorubicin treatment. The cell line was cultured in 0.1 μM doxorubicin one week/per month, followed by 10 days culture without doxrubicin before experiment. This is to maintain similar high levels of P-gp expression in each experiment. […] Then 20 μL MTS/PMS assay solution was added to each well and the absorbance was recorded. The cell survival was calculated as percentage of cell control group without treatment. […] The IC50 values were calculated by WinNonlin 4.1 (Pharsight) from the dose-response curves of percentage of cell growth with the model: E=Emax−(Emax−E0)×[C/(C+EC50)]

[2] = system: colon cancer cell line SW620 cells; assay: Cytotoxicity in colon cancer cell line SW620 with MTS assay; format: cell-based; settings: for IC50: read-out: IC50 in SW620
Experimental: The cytotoxicity of compounds DNR-1-DNR-6 prepared in this manner was examined in colon cancer cell line SW620 cells with MTS assay. […] Then 20 μL MTS/PMS assay solution was added to each well and the absorbance was recorded. The cell survival was calculated as percentage of cell control group without treatment. The IC50 of all these compounds against colon cancer cell line SW620 are summarized in Table 1 and graphically illustrated in FIGS. 1A and 1B. These IC50 values were calculated by WinNonlin 4.1 (Pharsight) from the dose-response curves of percentage of cell growth with the model: E=Emax−(Emax−E0)×[C/(C+EC50)].

K562/Dox = format: cell-based
[3] = system: drug-resistant leukemia K562/Dox xenograft; assay: K562/Dox leukemia xenograft mouse model; settings: for tumor growth inhibition (in words): 5 or 10 mg/kg intraperitoneally twice per week for three weeks, one week after dose
Experimental: In this animal model, 10^7 drug-resistant leukemia K562/Dox was injected subcutaneously into nude mice. […] The tumor volume was measured every three days.

P-gp = target: T1, P-gp (Homo sapiens, UniProt P08183); assay: P-gp export (uptake and efflux by FACS) in K562/Dox cells with or without CsA; format: cell-based; settings: CsA 5 μM, 30 min incubation
T1 construct: endogenous in cells; host or cells: K562/Dox (doxorubicin-induced drug-resistant K562 leukemia cells)
T1 sequence (P08183 whole entry): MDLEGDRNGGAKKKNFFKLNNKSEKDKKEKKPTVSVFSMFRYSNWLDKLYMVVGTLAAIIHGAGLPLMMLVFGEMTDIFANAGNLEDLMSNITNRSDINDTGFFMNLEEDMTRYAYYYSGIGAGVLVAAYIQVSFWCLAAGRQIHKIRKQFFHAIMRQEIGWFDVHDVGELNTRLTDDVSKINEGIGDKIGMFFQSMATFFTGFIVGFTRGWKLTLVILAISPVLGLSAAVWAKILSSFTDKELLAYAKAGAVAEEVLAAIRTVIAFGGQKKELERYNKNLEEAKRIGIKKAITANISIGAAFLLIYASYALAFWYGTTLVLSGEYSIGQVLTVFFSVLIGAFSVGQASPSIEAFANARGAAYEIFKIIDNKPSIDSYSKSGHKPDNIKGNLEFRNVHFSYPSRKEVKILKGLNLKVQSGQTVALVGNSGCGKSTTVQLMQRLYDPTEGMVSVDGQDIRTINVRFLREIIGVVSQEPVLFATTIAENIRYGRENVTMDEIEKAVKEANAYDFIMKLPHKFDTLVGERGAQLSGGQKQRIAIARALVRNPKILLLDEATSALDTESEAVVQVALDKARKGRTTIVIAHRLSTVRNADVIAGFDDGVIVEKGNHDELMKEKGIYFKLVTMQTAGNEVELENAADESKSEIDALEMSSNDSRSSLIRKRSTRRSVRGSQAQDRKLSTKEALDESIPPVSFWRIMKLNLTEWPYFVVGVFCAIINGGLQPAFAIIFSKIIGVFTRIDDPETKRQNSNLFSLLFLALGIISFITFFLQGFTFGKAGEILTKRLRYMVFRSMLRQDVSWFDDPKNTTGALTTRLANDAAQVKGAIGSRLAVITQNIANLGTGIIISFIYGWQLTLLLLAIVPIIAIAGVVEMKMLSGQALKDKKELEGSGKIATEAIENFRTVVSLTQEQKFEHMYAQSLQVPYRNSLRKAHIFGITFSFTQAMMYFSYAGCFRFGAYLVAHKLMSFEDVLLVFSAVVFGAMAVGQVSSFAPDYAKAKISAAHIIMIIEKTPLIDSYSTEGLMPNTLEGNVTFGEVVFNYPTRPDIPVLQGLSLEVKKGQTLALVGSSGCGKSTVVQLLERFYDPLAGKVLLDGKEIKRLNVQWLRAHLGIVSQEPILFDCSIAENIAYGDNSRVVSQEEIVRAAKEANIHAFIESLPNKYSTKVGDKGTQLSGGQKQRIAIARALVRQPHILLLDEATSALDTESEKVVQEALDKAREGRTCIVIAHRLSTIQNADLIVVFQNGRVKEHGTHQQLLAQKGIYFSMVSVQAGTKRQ

[4] = drug-sensitive K562, MTS assay, 72 hours, read-out: IC50 in K562
[5] = drug-sensitive K562, values given in text in nM, read-out: IC50 against K562
[6] = 10 mg/kg twice per week for three weeks

Compound | IC50 (leukemia cells K562; [4]) | IC50 (leukemia cells K562; [5]) | IC50 ([1]; K562, 72 h) | DRI (drug resistance index) [1] | IC50 ([2]; Homo sapiens, SW-620, 72 h) | further results
COc1cccc2c1C(=O)c1c(O)c3c(c(O)c1C2=O)C[C@@](O)(C(C)=O)C[C@@H]3OC1CC(N=[N+]=[N-])C(OC2CC(C)(OC)C(O)C(C)O2)C(C)O1 (stereo partly drawn) [Compound 4] | 225 nM | 200 to 1100 nM | 12100 nM | 53.64 |  | 
COc1cccc2c1C(=O)c1c(O)c3c(c(O)c1C2=O)C[C@@](O)(C(C)=O)C[C@@H]3OC1OC(C)C(O)C(O)C1O (stereo partly drawn) [DNR-1] |  |  |  |  | 265 nM | 
COc1cccc2c1C(=O)c1c(O)c3c(c(O)c1C2=O)C[C@@](O)(C(C)=O)C[C@@H]3O [DNR-A, reference compound] |  |  |  |  |  | fold lower cytotoxicity than compounds DNR-1-DNR-6 [2]: 70-100 fold; IC50 ([2]; MTS assay, 72 hours): > 2000 nM
COc1cccc2c1C(=O)c1c(O)c3c(c(O)c1C2=O)C[C@@](O)(C(C)=O)C[C@@H]3OC1CC(OC)C(O)C(C)O1 (stereo partly drawn) [DNR-4] |  |  |  |  | 104 nM | 
COc1cccc2c1C(=O)c1c(O)c3c(c(O)c1C2=O)C[C@@](O)(C(C)=O)C[C@@H]3OC1CCC(O)C(C)O1 (stereo partly drawn) [DNR-5] |  |  |  |  | 350 nM | 
COc1cccc2c1C(=O)c1c(O)c3c(c(O)c1C2=O)C[C@@](O)(C(C)=O)C[C@@H]3OC1CC(N=[N+]=[N-])C(OC2CCC(O)C(C)O2)C(C)O1 (stereo partly drawn) [Compound 1] | 787 nM | 200 to 1100 nM |  | 2.45 |  | 
COc1cccc2c1C(=O)c1c(O)c3c(c(O)c1C2=O)C[C@@](O)(C(C)=O)C[C@@H]3OC1CC(N=[N+]=[N-])C(OC2CC(O)C(O)C(C)O2)C(C)O1 (stereo partly drawn) [Compound 2] | 287 nM | 200 to 1100 nM | 5440 nM | 18.94 |  | 
COc1cccc2c1C(=O)c1c(O)c3c(c(O)c1C2=O)C[C@@](O)(C(C)=O)C[C@@H]3OC1CCC(N=[N+]=[N-])C(C)O1 (stereo partly drawn) [DNR-6] |  |  |  |  | > 1000 nM | cytotoxicity in SW620 (in words) ([2]; FIG. 1B): lost its cytotoxicity
COc1cccc2c1C(=O)c1c(O)c3c(c(O)c1C2=O)C[C@@](O)(C(C)=O)C[C@@H]3OC1CC(N=[N+]=[N-])C(O)C(C)O1 (stereo partly drawn) [ADNR, 3′-azido-deamino-daunorubicin] | 75 nM |  |  | 13 |  | fold more active than DNR against drug-resistant K562 cells [1]: at least 5 fold; IC50 [1]: 1000 nM; DRI (drug resistance index) ([1]; listed as 8): 13.3; fold lower DRI than that of DNR ([1]; versus DNR): 25 fold; cell killing effect, drug alone (K562/Dox; 1 μM, K562/Dox, without CsA): more than 50%; cell killing effect in combination with CsA (K562/Dox; drug 1 μM plus CsA 5 μM, K562/Dox): did not change the cell killing effects; fold higher maximum growth inhibition rate than DNR ([3]; 5 mg/kg): 2.5 fold; body weight decrease [3, 6]: did not show any significant body weight change; survival after 50 days [3, 6]: 100%; tumor growth inhibition (in words) [3]: significantly inhibited tumor growth
COc1cccc2c1C(=O)c1c(O)c3c(c(O)c1C2=O)C[C@@](O)(C(C)=O)C[C@@H]3O[C@H]1C[C@H](N)[C@H](O)[C@H](C)O1 [DNR, daunorubicin, reference compound] | 15 nM | 15 nM | > 5000 nM |  | 33.4 nM | effect of P-gp inhibitor (CsA) on retention of drug in K562/Dox cells, uptake and efflux phases (P-gp): significantly inhibited the drug efflux and increased drug accumulation; cell killing effect in combination with CsA (K562/Dox): more than 70%; cell killing effect, drug alone (K562/Dox): 30%; time by which 50% mice died ([3]; 10 mg/kg): < 20 days; body weight decrease [3, 6]: more than 70%; time by which all mice died ([3]; 10 mg/kg, due to both tumor growth and drug toxicity): < 30 days; tumor growth inhibition (in words) [3]: significantly inhibited tumor growth
COc1cccc2c1C(=O)c1c(O)c3c(c(O)c1C2=O)C[C@@](O)(C(C)=O)C[C@@H]3OC1CC(N=[N+]=[N-])C(OC2CC(N=[N+]=[N-])C(O)C(C)O2)C(C)O1 (stereo partly drawn) [Compound 6] | 1130 nM |  | 6390 nM | 5.64 |  | 
COc1cccc2c1C(=O)c1c(O)c3c(c(O)c1C2=O)C[C@@](O)(C(C)=O)C[C@@H]3OC1CC(C)(OC)C(O)C(C)O1 (stereo partly drawn) [DNR-3] |  |  |  |  | > 1000 nM | 
